Experimental data taken from US20050119253A1, “Method of treating mental disorders using of D4 and 5-HT2A antagonists, inverse agonists or partial agonists” (priority 2003, published 2005).
Values belong to the compound of their own block, whether it stands above or below them.

Columns and labels:
[1] = metabolite from biotransformation in the liver; cited from earlier work
[2] = system: acute schizophrenia; details: neuroleptic responsive inpatients with acute schizophrenia; cited from earlier work
[3] = biological target: 5HT1E (Homo sapiens, UniProt P28566); experiment: pKi of test compounds, 5HT1E receptor; format: binding
5HT1E, sequence (P28566 whole entry, species assumed): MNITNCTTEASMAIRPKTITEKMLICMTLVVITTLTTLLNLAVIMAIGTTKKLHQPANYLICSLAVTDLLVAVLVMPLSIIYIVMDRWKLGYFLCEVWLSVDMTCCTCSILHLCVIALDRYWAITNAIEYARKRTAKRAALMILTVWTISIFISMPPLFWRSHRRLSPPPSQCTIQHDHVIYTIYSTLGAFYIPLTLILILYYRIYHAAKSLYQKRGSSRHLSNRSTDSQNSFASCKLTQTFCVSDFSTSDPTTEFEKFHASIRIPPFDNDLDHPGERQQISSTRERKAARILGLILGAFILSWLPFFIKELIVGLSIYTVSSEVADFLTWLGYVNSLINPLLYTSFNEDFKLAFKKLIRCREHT

[4] = biological target: 5HT1F (Homo sapiens, UniProt P30939); experiment: pKi of test compounds, 5HT1F receptor; format: binding
5HT1F, sequence (P30939 whole entry, species assumed): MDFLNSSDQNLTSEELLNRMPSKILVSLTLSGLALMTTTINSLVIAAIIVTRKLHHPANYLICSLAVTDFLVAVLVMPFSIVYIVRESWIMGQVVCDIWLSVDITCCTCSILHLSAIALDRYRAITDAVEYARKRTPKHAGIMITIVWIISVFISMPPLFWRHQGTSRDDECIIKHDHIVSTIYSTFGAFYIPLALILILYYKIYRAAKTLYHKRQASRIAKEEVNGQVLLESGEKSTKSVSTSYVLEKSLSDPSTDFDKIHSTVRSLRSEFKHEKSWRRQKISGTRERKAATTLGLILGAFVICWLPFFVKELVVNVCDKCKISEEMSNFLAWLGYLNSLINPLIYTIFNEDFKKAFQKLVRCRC

[5] = biological target: T1, D4 receptor (Homo sapiens, UniProt P21917); experiment: pKi of test compounds, D4 receptor; format: binding; details: D4; read-out: pKi D4 (converted)
T1 sequence (P21917 1-419): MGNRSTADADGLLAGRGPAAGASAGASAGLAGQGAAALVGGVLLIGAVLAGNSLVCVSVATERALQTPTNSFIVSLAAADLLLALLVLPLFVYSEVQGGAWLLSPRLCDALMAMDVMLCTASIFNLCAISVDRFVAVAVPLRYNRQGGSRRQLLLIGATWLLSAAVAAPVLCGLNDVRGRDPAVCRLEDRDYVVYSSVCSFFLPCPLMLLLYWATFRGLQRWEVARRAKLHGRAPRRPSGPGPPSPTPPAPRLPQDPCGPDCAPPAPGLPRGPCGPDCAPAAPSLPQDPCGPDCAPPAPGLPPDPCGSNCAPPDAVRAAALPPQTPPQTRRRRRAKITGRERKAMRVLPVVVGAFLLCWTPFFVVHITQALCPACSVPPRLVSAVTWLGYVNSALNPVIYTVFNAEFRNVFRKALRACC

[6] = biological target: other Dopamine receptors; experiment: pKi towards other Dopamine receptors; format: binding; details: D1, D2 and D3
[7] = biological target: T2, Alpha2A (Homo sapiens, UniProt P08913); experiment: pKi of test compounds, adrenergic receptor Alpha2A; format: binding
T2 sequence (P08913 1-465): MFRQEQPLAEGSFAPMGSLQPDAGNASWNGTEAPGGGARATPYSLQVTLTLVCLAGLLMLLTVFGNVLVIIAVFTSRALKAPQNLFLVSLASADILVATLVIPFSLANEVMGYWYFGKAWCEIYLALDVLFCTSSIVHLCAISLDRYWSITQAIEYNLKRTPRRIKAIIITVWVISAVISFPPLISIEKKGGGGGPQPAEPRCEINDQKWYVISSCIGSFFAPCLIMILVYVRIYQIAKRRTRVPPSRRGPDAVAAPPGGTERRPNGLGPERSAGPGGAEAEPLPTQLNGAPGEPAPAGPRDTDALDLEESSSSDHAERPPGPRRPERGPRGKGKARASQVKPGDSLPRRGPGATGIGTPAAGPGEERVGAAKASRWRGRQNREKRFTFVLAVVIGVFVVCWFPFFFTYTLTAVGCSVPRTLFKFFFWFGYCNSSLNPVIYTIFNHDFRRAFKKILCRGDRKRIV

[8] = biological target: 5HT1B (Homo sapiens, UniProt P28222); experiment: pKi of test compounds, 5HT1B receptor; format: binding
5HT1B, sequence (P28222 whole entry, species assumed): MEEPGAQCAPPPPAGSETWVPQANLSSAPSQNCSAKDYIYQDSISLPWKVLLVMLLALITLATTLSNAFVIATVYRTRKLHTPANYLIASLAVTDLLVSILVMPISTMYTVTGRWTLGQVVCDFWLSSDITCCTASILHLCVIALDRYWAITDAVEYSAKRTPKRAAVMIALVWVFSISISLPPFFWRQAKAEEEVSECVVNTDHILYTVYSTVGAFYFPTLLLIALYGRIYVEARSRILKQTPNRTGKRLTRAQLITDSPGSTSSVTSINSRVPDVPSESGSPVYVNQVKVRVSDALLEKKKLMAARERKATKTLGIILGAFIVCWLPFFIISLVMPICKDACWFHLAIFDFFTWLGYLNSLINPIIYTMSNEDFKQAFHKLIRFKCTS

[9] = biological target: T3, Alpha2C (Homo sapiens, UniProt P18825); experiment: pKi of test compounds, adrenergic receptor Alpha2C; format: binding
T3 sequence (P18825 1-462): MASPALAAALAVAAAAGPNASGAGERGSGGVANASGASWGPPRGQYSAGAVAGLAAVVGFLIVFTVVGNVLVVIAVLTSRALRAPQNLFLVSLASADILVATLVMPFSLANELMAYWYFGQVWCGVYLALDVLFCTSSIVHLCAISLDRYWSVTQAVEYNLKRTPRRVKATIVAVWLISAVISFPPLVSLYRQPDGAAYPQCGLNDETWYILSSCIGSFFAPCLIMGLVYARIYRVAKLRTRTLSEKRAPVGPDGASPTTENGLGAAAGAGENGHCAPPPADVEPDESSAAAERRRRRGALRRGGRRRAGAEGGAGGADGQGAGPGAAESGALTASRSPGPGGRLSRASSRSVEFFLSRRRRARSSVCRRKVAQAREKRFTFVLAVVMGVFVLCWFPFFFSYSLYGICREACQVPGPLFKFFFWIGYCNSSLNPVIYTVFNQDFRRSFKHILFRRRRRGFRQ

[10] = biological target: Beta1 (Homo sapiens, UniProt P08588); experiment: pKi of test compounds, adrenergic receptor Beta1; format: binding
Beta1, sequence (P08588 whole entry): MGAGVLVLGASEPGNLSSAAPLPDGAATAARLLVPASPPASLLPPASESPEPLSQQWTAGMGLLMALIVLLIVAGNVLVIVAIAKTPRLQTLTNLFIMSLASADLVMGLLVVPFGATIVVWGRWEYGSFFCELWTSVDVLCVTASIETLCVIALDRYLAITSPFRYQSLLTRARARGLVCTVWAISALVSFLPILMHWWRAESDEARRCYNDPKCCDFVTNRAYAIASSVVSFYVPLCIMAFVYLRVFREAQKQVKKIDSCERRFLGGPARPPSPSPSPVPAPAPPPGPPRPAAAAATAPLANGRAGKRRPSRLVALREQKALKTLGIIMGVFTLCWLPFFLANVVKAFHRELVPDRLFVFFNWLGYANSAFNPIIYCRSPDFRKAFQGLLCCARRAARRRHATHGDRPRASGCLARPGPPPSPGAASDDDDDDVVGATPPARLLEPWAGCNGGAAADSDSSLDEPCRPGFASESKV

[11] = biological target: D3 (Homo sapiens, UniProt P35462); experiment: pKi of test compounds, D3 receptor; format: binding; details: read-out: pKi D3 (converted)
D3, sequence (P35462 whole entry): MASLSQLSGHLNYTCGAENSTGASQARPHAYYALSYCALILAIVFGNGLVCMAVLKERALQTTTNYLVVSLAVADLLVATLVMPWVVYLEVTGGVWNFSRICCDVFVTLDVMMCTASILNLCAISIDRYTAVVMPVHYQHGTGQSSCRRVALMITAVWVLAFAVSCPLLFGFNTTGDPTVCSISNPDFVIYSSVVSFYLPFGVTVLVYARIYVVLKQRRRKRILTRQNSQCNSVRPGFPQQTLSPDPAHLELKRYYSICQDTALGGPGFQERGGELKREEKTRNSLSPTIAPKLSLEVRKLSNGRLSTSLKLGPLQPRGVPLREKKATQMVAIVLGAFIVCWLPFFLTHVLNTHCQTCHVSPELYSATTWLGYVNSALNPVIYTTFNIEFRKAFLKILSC

[12] = biological target: 5HT1D (Homo sapiens, UniProt P28221); experiment: pKi of test compounds, 5HT1D receptor; format: binding; details: read-out: pKi 5HT1D (converted)
5HT1D, sequence (P28221 whole entry, species assumed): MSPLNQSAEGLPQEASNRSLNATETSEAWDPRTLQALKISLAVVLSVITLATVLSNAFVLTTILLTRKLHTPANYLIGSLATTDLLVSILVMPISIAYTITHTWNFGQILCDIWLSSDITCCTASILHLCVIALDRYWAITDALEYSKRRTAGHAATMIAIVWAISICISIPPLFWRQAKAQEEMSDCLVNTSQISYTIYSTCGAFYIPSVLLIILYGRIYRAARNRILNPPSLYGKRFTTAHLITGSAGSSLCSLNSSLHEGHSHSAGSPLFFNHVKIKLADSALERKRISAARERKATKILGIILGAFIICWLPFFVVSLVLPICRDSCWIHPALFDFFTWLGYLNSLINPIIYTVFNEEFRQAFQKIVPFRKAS

[13] = biological target: T4, 5HT1A (Homo sapiens, UniProt P08908); experiment: pKi of test compounds, 5HT1A receptor; format: binding
T4 sequence (P08908 1-422): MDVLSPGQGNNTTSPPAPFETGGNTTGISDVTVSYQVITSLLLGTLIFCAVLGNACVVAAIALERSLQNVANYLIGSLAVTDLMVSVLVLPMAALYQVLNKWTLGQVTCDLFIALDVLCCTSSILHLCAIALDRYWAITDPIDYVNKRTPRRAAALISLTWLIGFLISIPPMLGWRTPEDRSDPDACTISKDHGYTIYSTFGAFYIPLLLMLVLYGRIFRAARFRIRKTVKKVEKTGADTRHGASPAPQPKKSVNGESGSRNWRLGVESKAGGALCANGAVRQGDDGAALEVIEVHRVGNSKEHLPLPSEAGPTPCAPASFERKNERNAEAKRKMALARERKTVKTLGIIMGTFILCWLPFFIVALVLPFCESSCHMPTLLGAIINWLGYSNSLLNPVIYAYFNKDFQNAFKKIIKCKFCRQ

[14] = biological target: other 5HT receptors; experiment: pKi towards other 5HT receptors; format: binding; details: 5-HT1A, 1B, 1D, 1E, 1F, 5-HT2B, 5-HT2C, 5-HT6 (rat), 5-HT7 (rat)
[15] = biological target: Beta2 (Homo sapiens, UniProt P07550); experiment: pKi of test compounds, adrenergic receptor Beta2; format: binding
Beta2, sequence (P07550 whole entry): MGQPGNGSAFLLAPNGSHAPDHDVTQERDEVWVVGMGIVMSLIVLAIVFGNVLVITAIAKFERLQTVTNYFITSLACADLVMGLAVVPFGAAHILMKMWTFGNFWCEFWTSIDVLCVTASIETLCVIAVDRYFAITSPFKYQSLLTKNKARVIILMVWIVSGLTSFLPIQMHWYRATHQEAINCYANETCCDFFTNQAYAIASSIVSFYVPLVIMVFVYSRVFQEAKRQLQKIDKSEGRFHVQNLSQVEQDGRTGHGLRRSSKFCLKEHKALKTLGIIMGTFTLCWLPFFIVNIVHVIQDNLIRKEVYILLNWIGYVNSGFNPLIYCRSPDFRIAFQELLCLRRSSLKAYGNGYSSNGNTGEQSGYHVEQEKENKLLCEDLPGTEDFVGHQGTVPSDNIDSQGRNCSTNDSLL

Compound: Cc1nc2n(c(=O)c1CCN1CCC(c3noc4cc(F)ccc34)CC1)CCCC2O (stereo not drawn) [9-hydroxyrisperidone]
pharmacological activity and intensity relative to parent risperidone [1]: of the same pharmacological activity and intensity as parent risperidone

Compound: Clc1ccc(N2CCN(Cc3c[nH]c4ncccc34)CC2)cc1 [L-745,870]
antipsychotic efficacy [2]: ineffective as an antipsychotic

Ki [3]: > 1 µM | Ki [4]: > 1 µM | Ki [5]: 0.001 to 0.01 µM | pKi value towards other Dopamine receptors [6]: less than 8 | Ki [7]: 0.1 to 1 µM | Ki [8]: 0.1 to 1 µM | Ki [9]: 0.1 to 1 µM | Ki [10]: > 1 µM | Ki [11]: 0.1 to 1 µM | Ki [12]: 0.1 to 1 µM | Ki [13]: > 1 µM | pKi value towards other 5HT receptors [14]: less than 8 | Ki [15]: > 1 µM
Compound: NC(=O)C1(N2CCCCC2)CCN(CCCC(=O)c2ccc(F)cc2)CC1 [Pipamperone, 1′-[3-(p-Fluorobenzoyl)propyl]-[1,4′-bipiperidine]-4′-carboxamide]
